Data published in US9920010B2, “CXCR7 receptor modulators” (IDORSIA PHARMACEUTICALS LTD, priority 2013, dated 2018).

molecular target: T1, CXCR7 (Homo sapiens, UniProt P25106); test: PathHunter CHO-K1 CXCR7 b-arrestin recruitment assay (CXCR7 agonistic activity); assay type: cell-based; settings: PathHunter CHO-K1 CXCR7 b-arrestin cell line
T1 construct: host or cells: CHO-K1 (PathHunter CHO-K1 CXCR7 b-arrestin cell line, stably transfected)
Outline: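 Stable CHO-K1 line with C-terminally ProLink-tagged CXCR7 and β-arrestin 2–EA fusion; β-arrestin recruitment restores β-gal activity, read by chemiluminescence after 1 h RT detection. Cells seeded 24 h, starved in OPTIMEM 3–4 h, exposed to compounds 90 min at 37 °C in HBSS/HEPES/BSA. Geometric-mean EC50 from repeated measurements.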

T1 sequence (P25106 whole entry): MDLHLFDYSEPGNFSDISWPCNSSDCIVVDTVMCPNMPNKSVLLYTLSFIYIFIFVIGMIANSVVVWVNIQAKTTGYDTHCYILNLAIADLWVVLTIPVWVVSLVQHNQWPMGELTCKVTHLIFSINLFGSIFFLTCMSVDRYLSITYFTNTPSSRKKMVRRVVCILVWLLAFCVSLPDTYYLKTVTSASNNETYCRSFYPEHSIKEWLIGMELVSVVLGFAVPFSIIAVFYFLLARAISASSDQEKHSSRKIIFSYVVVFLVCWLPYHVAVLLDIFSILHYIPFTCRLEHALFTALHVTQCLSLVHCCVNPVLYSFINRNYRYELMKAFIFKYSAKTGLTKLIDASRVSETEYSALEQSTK
T1 sequence (P32121 whole entry partner): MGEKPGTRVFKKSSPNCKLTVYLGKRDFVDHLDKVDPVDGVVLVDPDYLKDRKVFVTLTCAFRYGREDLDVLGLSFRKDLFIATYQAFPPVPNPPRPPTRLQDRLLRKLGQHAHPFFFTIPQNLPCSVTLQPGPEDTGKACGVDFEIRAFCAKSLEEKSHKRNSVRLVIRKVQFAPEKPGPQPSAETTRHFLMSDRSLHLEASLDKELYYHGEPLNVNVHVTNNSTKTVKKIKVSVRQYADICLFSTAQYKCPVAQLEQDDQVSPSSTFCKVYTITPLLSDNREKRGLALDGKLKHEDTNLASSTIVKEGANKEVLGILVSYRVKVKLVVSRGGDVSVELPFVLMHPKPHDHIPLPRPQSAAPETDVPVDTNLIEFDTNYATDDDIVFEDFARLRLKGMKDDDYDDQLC

SMILES	EC50 [nM]
COCCN1CCc2c(/C=C/C(=O)N(Cc3ccccc3C(F)(F)F)CC3(C)COC3)cccc2C1 [Example 324, (E)-3-[2-(2-Methoxy-ethyl)-1,2,3,4-tetrahydro-isoquinolin-5-yl]-N-(3-methyl-oxetan-3-ylmethyl)-N-(2-trifluoromethyl-benzyl)-acrylamide]	243
COCCN1CCc2c(CCC(=O)N(CCN(C)C)Cc3ccccc3C(F)(F)F)cccc2C1 [Example 335, N-(2-Dimethylamino-ethyl)-3-[2-(2-methoxy-ethyl)-1,2,3,4-tetrahydro-isoquinolin-5-yl]-N-(2-trifluoromethyl-benzyl)-propionamide]	23
COCCN1CCc2c(CCC(=O)N(CCN(C)C(=O)OC(C)(C)C)Cc3ccccc3C(F)(F)F)cccc2C1 [Example 337, {2-[{3-[2-(2-Methoxy-ethyl)-1,2,3,4-tetrahydro-isoquinolin-5-yl]-propionyl}-(2-trifluoromethyl-benzyl)-amino]-ethyl}-methyl-carbamic acid tert-butyl ester]	429
COCCN1CCc2c(CCC(=O)N(CCC(C)(C)C)Cc3ncccc3C)cccc2C1 [Example 338, N-(3,3-Dimethyl-butyl)-3-[2-(2-methoxy-ethyl)-1,2,3,4-tetrahydro-isoquinolin-5-yl]-N-(3-methyl-pyridin-2-ylmethyl)-propionamide]	279
COCCN1CCc2c(CCC(=O)N(Cc3ccccc3C(F)(F)F)CC(O)COC)cccc2C1 (centres unmarked) [Example 339, N-(2-Hydroxy-3-methoxy-propyl)-3-[2-(2-methoxy-ethyl)-1,2,3,4-tetrahydro-isoquinolin-5-yl]-N-(2-trifluoromethyl-benzyl)-propionamide]	457
COCCN1CCc2c(CCC(=O)N(CCN3CCC(F)(F)CC3)Cc3ncccc3C(F)(F)F)cccc2C1 [Example 340, N-[2-(4,4-Difluoro-piperidin-1-yl)-ethyl]-3-[2-(2-methoxy-ethyl)-1,2,3,4-tetrahydro-isoquinolin-5-yl]-N-(3-trifluoromethyl-pyridin-2-ylmethyl)-propionamide]	277
COCCN1CCc2c(CCC(=O)N(Cc3ccccc3C(F)(F)F)CC(C)(C)O)cccc2C1 [Example 341, N-(2-Hydroxy-2-methyl-propyl)-3-[2-(2-methoxy-ethyl)-1,2,3,4-tetrahydro-isoquinolin-5-yl]-N-(2-trifluoromethyl-benzyl)-propionamide]	397
COCCN1CCc2c(CCC(=O)N(CCN(C)CCF)Cc3ccccc3C(F)(F)F)cccc2C1 [Example 342, N-{2-[(2-Fluoro-ethyl)-methyl-amino]-ethyl}-3-[2-(2-methoxy-ethyl)-1,2,3,4-tetrahydro-isoquinolin-5-yl]-N-(2-trifluoromethyl-benzyl)-propionamide]	110
COCCN1CCc2c(CCC(=O)N(Cc3ccccc3C(F)(F)F)CC3(C)COC3)cccc2C1 [Example 343, 3-[2-(2-Methoxy-ethyl)-1,2,3,4-tetrahydro-isoquinolin-5-yl]-N-(3-methyl-oxetan-3-ylmethyl)-N-(2-trifluoromethyl-benzyl)-propionamide]	415
COCCN1CCc2c(CCC(=O)N(CCC(C)(C)O)Cc3ccccc3C(F)(F)F)cccc2C1 [Example 344, N-(3-Hydroxy-3-methyl-butyl)-3-[2-(2-methoxy-ethyl)-1,2,3,4-tetrahydro-isoquinolin-5-yl]-N-(2-trifluoromethyl-benzyl)-propionamide]	438
COCCN1CCc2c(CCC(=O)N(CCN3CCC(F)(F)CC3)Cc3ncccc3Cl)cccc2C1 [Example 345, N-(3-Chloro-pyridin-2-ylmethyl)-N-[2-(4,4-difluoro-piperidin-1-yl)-ethyl]-3-[2-(2-methoxy-ethyl)-1,2,3,4-tetrahydro-isoquinolin-5-yl]-propionamide]	400
C=CCN(C)CCN(Cc1ccccc1C(F)(F)F)C(=O)CCc1cccc2c1CCN(CC=C)C2 [Example 348, N-[2-(Allyl-methyl-amino)-ethyl]-3-(2-allyl-1,2,3,4-tetrahydro-isoquinolin-5-yl)-N-(2-trifluoromethyl-benzyl)-propionamide]	13

Continued, values first:

EC50 [nM]	SMILES
5	COCCN1CCc2c(/C=C/C(=O)N(CCN(C)C)Cc3ccccc3C(F)(F)F)cccc2C1 [Example 317, (E)-N-(2-Dimethylamino-ethyl)-3-[2-(2-methoxy-ethyl)-1,2,3,4-tetrahydro-isoquinolin-5-yl]-N-(2-trifluoromethyl-benzyl)-acrylamide]
7	COCCN1CCc2c(/C=C/C(=O)N(CCN(C)C)Cc3ncccc3C(F)(F)F)cccc2C1 [Example 318, (E)-N-(2-Dimethylamino-ethyl)-3-[2-(2-methoxy-ethyl)-1,2,3,4-tetrahydro-isoquinolin-5-yl]-N-(3-trifluoromethyl-pyridin-2-ylmethyl)-acrylamide]
443	COCCN1CCc2c(/C=C/C(=O)N(CCN(C)C(=O)OC(C)(C)C)Cc3ccccc3C(F)(F)F)cccc2C1 [Example 319, {2-[{(E)-3-[2-(2-Methoxy-ethyl)-1,2,3,4-tetrahydro-isoquinolin-5-yl]-acryloyl}-(2-trifluoromethyl-benzyl)-amino]-ethyl}-methyl-carbamic acid tert-butyl ester]
154	COCCN1CCc2c(/C=C/C(=O)N(CCC(C)(C)C)Cc3ncccc3C)cccc2C1 [Example 320, (E)-N-(3,3-Dimethyl-butyl)-3-[2-(2-methoxy-ethyl)-1,2,3,4-tetrahydro-isoquinolin-5-yl]-N-(3-methyl-pyridin-2-ylmethyl)-acrylamide]
244	COCCN1CCc2c(/C=C/C(=O)N(Cc3ccccc3C(F)(F)F)CC(O)COC)cccc2C1 (centres unmarked) [Example 321, (E)-N-(2-Hydroxy-3-methoxy-propyl)-3-[2-(2-methoxy-ethyl}-1,2,3,4-tetrahydro-isoquinolin-5-yl]-N-(2-trifluoromethyl-benzyl)-acrylamide]
119	COCCN1CCc2c(/C=C/C(=O)N(CCN3CCC(F)(F)CC3)Cc3ncccc3C(F)(F)F)cccc2C1 [Example 322, (E)-N-[2-(4,4-Difluoro-piperidin-1-yl)-ethyl]-3-[2-(2-methoxy-ethyl)-1,2,3,4-tetrahydro-isoquinolin-5-yl]-N-(3-trifluoromethyl-pyridin-2-ylmethyl)-acrylamide]
182	COCCN1CCc2c(/C=C/C(=O)N(Cc3ccccc3C(F)(F)F)CC(C)(C)O)cccc2C1 [Example 323, (E)-N-(2-Hydroxy-2-methyl-propyl)-3-[2-(2-methoxy-ethyl)-1,2,3,4-tetrahydro-isoquinolin-5-yl]-N-(2-trifluoromethyl-benzyl)-acrylamide]
334	COCCN1CCc2c(/C=C/C(=O)N(CCC(C)(C)O)Cc3ccccc3C(F)(F)F)cccc2C1 [Example 325, (E)-N-(3-Hydroxy-3-methyl-butyl)-3-[2-(2-methoxy-ethyl)-1,2,3,4-tetrahydro-isoquinolin-5-yl]-N-(2-trifluoromethyl-benzyl)-acrylamide]
184	COCCN1CCc2c(/C=C/C(=O)N(CCN3CCC(F)(F)CC3)Cc3ncccc3Cl)cccc2C1 [Example 326, (E)-N-(3-Chloro-pyridin-2-ylmethyl)-N-[2-(4,4-difluoro-piperidin-1-yl)-ethyl]-3-[2-(2-methoxy-ethyl)-1,2,3,4-tetrahydro-isoquinolin-5-yl]-acrylamide]
20	COCCN1CCc2c(/C=C/C(=O)N(CCN(C)C)Cc3ncccc3Cl)cccc2C1 [Example 327, (E)-N-(3-Chloro-pyridin-2-ylmethyl)-N-(2-dimethylamino-ethyl)-3-[2-(2-methoxy-ethyl)-1,2,3,4-tetrahydro-isoquinolin-5-yl]-acrylamide]
293	COCCN1CCc2c(/C=C/C(=O)N(Cc3ncccc3Cl)CC(C)(C)O)cccc2C1 [Example 328, (E)-N-(3-Chloro-pyridin-2-ylmethyl)-N-(2-hydroxy-2-methyl-propyl)-3-[2-(2-methoxy-ethyl)-1,2,3,4-tetrahydro-isoquinolin-5-yl]-acrylamide]
23	CC(C)(O)CN(Cc1ncccc1Cl)C(=O)/C=C/c1cccc2c1CCN(CC1CC1)C2 [Example 329, (E)-N-(3-Chloro-pyridin-2-ylmethyl)-3-(2-cyclopropylmethyl-1,2,3,4-tetrahydro-isoquinolin-5-yl)-N-(2-hydroxy-2-methyl-propyl)-acrylamide]
2	CN(C)CCN(Cc1ncccc1Cl)C(=O)/C=C/c1cccc2c1CCN(CC1CC1)C2 [Example 333, (E)-N-(3-Chloro-pyridin-2-ylmethyl)-3-(2-cyclopropylmethyl-1,2,3,4-tetrahydro-isoquinolin-5-yl)-N-(2-dimethylamino-ethyl)-acrylamide]
13	O=C(/C=C/c1cccc2c1CCN(CC1CC1)C2)N(CCN1CCC(F)(F)CC1)Cc1ncccc1Cl [Example 334, (E)-N-(3-Chloro-pyridin-2-ylmethyl)-3-(2-cyclopropylmethyl-1,2,3,4-tetrahydro-isoquinolin-5-yl)-N-[2-(4,4-difluoro-piperidin-1-yl)-ethyl]-acrylamide]
47	COCCN1CCc2c(CCC(=O)N(CCN(C)C)Cc3ncccc3C(F)(F)F)cccc2C1 [Example 336, N-(2-Dimethylamino-ethyl)-3-[2-(2-methoxy-ethyl)-1,2,3,4-tetrahydro-isoquinolin-5-yl]-N-(3-trifluoromethyl-pyridin-2-ylmethyl)-propionamide]
73	COCCN1CCc2c(CCC(=O)N(CCN(C)C)Cc3ncccc3Cl)cccc2C1 [Example 346, N-(3-Chloro-pyridin-2-ylmethyl)-N-(2-dimethylamino-ethyl)-3-[2-(2-methoxy-ethyl)-1,2,3,4-tetrahydro-isoquinolin-5-yl]-propionamide]
445	COCCN1CCc2c(CCC(=O)N(Cc3ncccc3Cl)CC(C)(C)O)cccc2C1 [Example 347, N-(3-Chloro-pyridin-2-ylmethyl)-N-(2-hydroxy-2-methyl-propyl)-3-[2-(2-methoxy-ethyl)-1,2,3,4-tetrahydro-isoquinolin-5-yl]-propionamide]
